Data taken from patent US20210053957A1, “HERBICIDAL COMPOUNDS” (SYNGENTA PARTICIPATIONS AG, priority 2018, published 2021).

How the values were obtained:
Assay in all cases: Post-emergence efficacy, glasshouse spray test
Assay type in all cases: in vivo
[1] = test system: Amaranthus palmeri (AMAPA); details: Application Rate 500 g/Ha, evaluated after 13 days; for pest or weed control at 500 g/ha: Amaranthus palmeri, post-emergence, 312 h, read-out: Control of weed species after post-emergence application, AMAPA (100=total damage to plant; 0=no damage to plant)
How it was run: (§1)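 Plants grown 14 days in glasshouse (24/16 °C day/night, 14 h light, 65% humidity), then sprayed post-emergence with compound formulated in acetone/IF50 emulsifier, diluted in 0.25% or 1% Empicol ESC70 plus 1% ammonium sulphate. Damage scored after 13 days, 0 (none) to 100 (total).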

[2] = test system: Chenopodium album (CHEAL); details: Application Rate 500 g/Ha, evaluated after 13 days; for pest or weed control at 500 g/ha: Chenopodium album, post-emergence, 312 h, read-out: Control of weed species after post-emergence application, CHEAL (100=total damage to plant; 0=no damage to plant)
How it was run: as §1

[3] = test system: Digitaria sanguinalis (DIGSA); details: Application Rate 500 g/Ha, evaluated after 13 days; for pest or weed control at 500 g/ha: Digitaria sanguinalis, post-emergence, 312 h, read-out: Control of weed species after post-emergence application, DIGSA (100=total damage to plant; 0=no damage to plant)
How it was run: as §1

[4] = test system: Echinochloa crus-galli (ECHCG); details: Application Rate 500 g/Ha, evaluated after 13 days; for pest or weed control at 500 g/ha: Echinochloa crus-galli, post-emergence, 312 h, read-out: Control of weed species after post-emergence application, ECHCG (100=total damage to plant; 0=no damage to plant)
How it was run: as §1

Eleusine indica (ELEIN) = details: Application Rate 500 g/Ha, evaluated after 13 days; for pest or weed control at 500 g/ha: Eleusine indica, post-emergence, 312 h, read-out: Control of weed species after post-emergence application, ELEIN (100=total damage to plant; 0=no damage to plant)
How it was run: as §1

[5] = test system: Euphorbia heterophylla (EPHHL); details: Application Rate 500 g/Ha, evaluated after 13 days; for pest or weed control at 500 g/ha: Euphorbia heterophylla, post-emergence, 312 h, read-out: Control of weed species after post-emergence application, EPHHL (100=total damage to plant; 0=no damage to plant)
How it was run: as §1

[6] = test system: Ipomoea hederacea (IPOHE); details: Application Rate 500 g/Ha, evaluated after 13 days; for pest or weed control at 500 g/ha: Ipomoea hederacea, post-emergence, 312 h, read-out: Control of weed species after post-emergence application, IPOHE (100=total damage to plant; 0=no damage to plant)
How it was run: as §1

Lolium perenne (LOLPE) = details: Application Rate 500 g/Ha, evaluated after 13 days; for pest or weed control at 500 g/ha: Lolium perenne, post-emergence, 312 h, read-out: Control of weed species after post-emergence application, LOLPE (100=total damage to plant; 0=no damage to plant)
How it was run: as §1

Setaia fabei (SETFA) = details: Application Rate 500 g/Ha, evaluated after 13 days; for pest or weed control at 500 g/ha: Setaria faberi, post-emergence, 312 h, read-out: Control of weed species after post-emergence application, SETFA (100=total damage to plant; 0=no damage to plant)
How it was run: as §1

Row | Compound | pest or weed control at 500 g/ha [1] | pest or weed control at 500 g/ha [2] | pest or weed control at 500 g/ha [3] | pest or weed control at 500 g/ha [4] | pest or weed control at 500 g/ha (Eleusine indica (ELEIN)) | pest or weed control at 500 g/ha [5] | pest or weed control at 500 g/ha [6] | pest or weed control at 500 g/ha (Lolium perenne (LOLPE)) | pest or weed control at 500 g/ha (Setaia fabei (SETFA)) | Control of weed species after post-emergence application, AMAPA (100=total damage to plant; 0=no damage to plant) [1] | Control of weed species after post-emergence application, CHEAL (100=total damage to plant; 0=no damage to plant) [2] | Control of weed species after post-emergence application, DIGSA (100=total damage to plant; 0=no damage to plant) [3] | Control of weed species after post-emergence application, ECHCG (100=total damage to plant; 0=no damage to plant) [4] | Control of weed species after post-emergence application, ELEIN (100=total damage to plant; 0=no damage to plant) (Eleusine indica (ELEIN)) | Control of weed species after post-emergence application, EPHHL (100=total damage to plant; 0=no damage to plant) [5] | Control of weed species after post-emergence application, IPOHE (100=total damage to plant; 0=no damage to plant) [6] | Control of weed species after post-emergence application, LOLPE (100=total damage to plant; 0=no damage to plant) (Lolium perenne (LOLPE)) | Control of weed species after post-emergence application, SETFA (100=total damage to plant; 0=no damage to plant) (Setaia fabei (SETFA))
1 | O=S(=O)([O-])OCC[n+]1ccc(-c2ncco2)cn1 [Compound A67] | 100% | 80% | 90% | 70% | 90% | 80% | 80% | 60% | 80% | – | – | – | – | – | – | – | – | –
2 | O=S(=O)(O)CCCC[n+]1ccc(-c2ncco2)cn1 [Compound A68] | – | – | – | – | – | – | – | – | – | 100 | 90 | 70 | 60 | 70 | 90 | 50 | 70 | 80
3 | O=C(O)C[n+]1ccc(-c2ncco2)cn1 [Compound A71] | 100% | 90% | 90% | 100% | 100% | 90% | 60% | 80% | 90% | – | – | – | – | – | – | – | – | –
4 | CS(=O)(=O)[N-]C(=O)C[n+]1ccc(-c2ncco2)cn1 [Compound A72] | 90% | 70% | 60% | 40% | 80% | 70% | 70% | 40% | 60% | – | – | – | – | – | – | – | – | –
5 | O=S(=O)([O-])NCC[n+]1ccc(-c2ncco2)cn1 [Compound A73] | 80% | 70% | 70% | 50% | 70% | 50% | 30% | 10% | 60% | – | – | – | – | – | – | – | – | –
6 | CS(=O)(=O)C[N-]C(=O)CCC[n+]1ccc(-c2ncco2)cn1 [Compound A74] | 100% | 90% | 90% | 40% | 100% | 70% | 80% | 60% | 80% | – | – | – | – | – | – | – | – | –
7 | COP(=O)(CCC[n+]1ccc(-c2ncco2)cn1)OC.[Br-] [Compound A76] | – | – | – | – | – | – | – | – | – | 30 | 20 | 60 | 30 | 70 | 40 | 30 | 30 | 40
8 | CC(CNS(=O)(=O)[O-])[n+]1ccc(-c2ncco2)cn1 (stereo not drawn) [Compound A83] | 100% | 70% | 60% | 60% | 70% | 70% | 40% | 50% | 60% | – | – | – | – | – | – | – | – | –
9 | O=S(=O)([O-])CC(O)C[n+]1ccc(-c2ncco2)cn1 (stereo not drawn) [Compound A84] | 100% | 90% | 70% | 70% | 70% | 90% | 40% | 50% | 50% | – | – | – | – | – | – | – | – | –
10 | CCOP(=O)(O)CC[n+]1ccc(-c2ncco2)cn1 [Compound A85] | 10% | 0% | 40% | 20% | 30% | 20% | 30% | 10% | 20% | – | – | – | – | – | – | – | – | –
11 | COP(=O)(O)CCC[n+]1ccc(-c2ncco2)cn1 [Compound A86] | 40% | 30% | 30% | 10% | 20% | 30% | 40% | 20% | 20% | – | – | – | – | – | – | – | – | –
12 | COC(=O)C[n+]1ccc(-c2ncn(C)n2)cn1 [Compound A87] | 80% | 20% | 90% | 50% | 80% | 80% | 10% | 0% | 40% | – | – | – | – | – | – | – | – | –
13 | CC(C[n+]1ccc(-c2ncco2)cn1)C(=O)O (stereo not drawn) [Compound A88] | 100% | 100% | 70% | 80% | 30% | 50% | 30% | 30% | 60% | – | – | – | – | – | – | – | – | –
14 | CC(C[n+]1ccc(-c2ncco2)cn1)NS(=O)(=O)[O-] (stereo not drawn) [Compound A89] | 100% | 90% | 90% | 60% | 70% | 100% | 30% | 60% | 60% | – | – | – | – | – | – | – | – | –
15 | CC(C(=O)O)[n+]1ccc(-c2ncco2)cn1 (stereo not drawn) [Compound A90] | 20% | 20% | 10% | 10% | 10% | 20% | 10% | 0% | 10% | – | – | – | – | – | – | – | – | –
16 | COC(=O)c1cccc(C[n+]2ccc(-c3ncco3)cn2)c1 [Compound A92] | 10% | 10% | 20% | 0% | 10% | 20% | 10% | 0% | 0% | – | – | – | – | – | – | – | – | –
17 | C=C/N=C(\OC)c1cc[n+](C(C)C(=O)OC)nc1 (stereo not drawn) [Compound A93] | 0% | 0% | 50% | 30% | 30% | 10% | 20% | 10% | 40% | – | – | – | – | – | – | – | – | –
